For assay [1], the target named is T1, Acetylcholinesterase (Rattus norvegicus, UniProt P37136).
T1 sequence (P37136 whole entry): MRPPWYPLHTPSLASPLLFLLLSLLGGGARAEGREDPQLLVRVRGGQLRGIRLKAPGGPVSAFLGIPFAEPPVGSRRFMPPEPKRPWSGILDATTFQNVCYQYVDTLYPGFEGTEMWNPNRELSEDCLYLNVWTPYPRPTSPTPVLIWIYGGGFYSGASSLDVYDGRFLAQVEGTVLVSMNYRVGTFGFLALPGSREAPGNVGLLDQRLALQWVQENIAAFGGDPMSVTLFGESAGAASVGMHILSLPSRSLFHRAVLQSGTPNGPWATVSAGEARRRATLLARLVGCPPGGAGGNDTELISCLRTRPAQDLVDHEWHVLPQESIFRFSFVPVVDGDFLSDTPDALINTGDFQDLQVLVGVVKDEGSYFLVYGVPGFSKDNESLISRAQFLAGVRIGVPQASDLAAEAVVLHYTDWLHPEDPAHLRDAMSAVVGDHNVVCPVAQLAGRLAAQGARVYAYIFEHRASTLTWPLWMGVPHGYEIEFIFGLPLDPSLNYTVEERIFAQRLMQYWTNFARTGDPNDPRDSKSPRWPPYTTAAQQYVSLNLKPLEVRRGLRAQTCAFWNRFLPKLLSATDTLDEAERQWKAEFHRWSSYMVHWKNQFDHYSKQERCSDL
Description: Compound was tested for its ability to inhibit acetylcholinesterase (AChE) in rat brain. The class given is tissue-based.

The target of assay [2] is T1, Acetylcholinesterase.

Structures are written as SMILES. A value given as a limit tells only on which side of the number the result lay.

Take `C/C=C1\C2C=C(C)CC1c1ccc(O)nc1C2` (configuration not stated): on Acetylcholinesterase [1], the IC50 (in general, the concentration at which inhibition is half-maximal) stood at 12.8 µM and affinity was put at a Ki of 2 µM.
The corresponding values for `CC1=CC2Cc3nc(O)ccc3C(C1)C2=O` (configuration not stated) are above 500 µM and above 500 µM.
The corresponding values for `C/C=C1/C2C=C(C)CC1c1ccc(=O)[nH]c1C2` (configuration not stated) are 55.5 µM and 12.3 µM.
Regarding `C/C=C1\[C@H]2C=C(C)C[C@]1(N)c1ccc(=O)[nH]c1C2` [HUPERZINE A], the affinity on Acetylcholinesterase [2], expressed as Ki, was 0.024 µM.

The values above are taken from ChEMBL document CHEMBL1134423, “Synthesis and acetylcholinesterase inhibition of 5-desamino huperzine A derivatives” (Bioorg Med Chem Lett, 2001).
